Where “and” joins values, the source holds several entries; their conditions need not be identical. Identical values can stand only once.
Conditions: Liquid; for self diffusion coefficient: NMR spin-echo technique; for viscosity: Falling or rolling sphere viscometry; for mass density: Vibrating tube method

OCC(F)(F)F [2,2,2-trifluoroethanol]
Conditions | mass density | self diffusion coefficient [m2/s] | viscosity
253.24 K, 100 kPa | – | 1.33e-10 | –
258.45 K, 100 kPa | – | 1.68e-10 | –
258.49 K, 100 kPa | – | 1.68e-10 | –
263.15 K, 100 kPa | – | – | 5.502 mPa·s and 5.485 mPa·s
263.15 K, 9900 kPa | – | – | 6.125 mPa·s
263.15 K, 10000 kPa | – | – | 6.134 mPa·s
263.15 K, 24500 kPa | – | – | 7.159 mPa·s
263.15 K, 24600 kPa | – | – | 7.168 mPa·s
263.15 K, 50500 kPa | – | – | 9.212 mPa·s
263.15 K, 50600 kPa | – | – | 9.203 mPa·s
263.15 K, 75500 kPa | – | – | 11.52 mPa·s and 11.51 mPa·s
263.15 K, 100200 kPa | – | – | 14.28 mPa·s
263.15 K, 101000 kPa | – | – | 14.38 mPa·s
263.15 K, 131600 kPa | – | – | 18.4 mPa·s
263.15 K, 132200 kPa | – | – | 18.53 mPa·s
263.37 K, 100 kPa | – | 2.05e-10 | –
263.39 K, 100 kPa | – | 2.06e-10 | –
268.15 K, 100 kPa | – | – | 4.517 mPa·s and 4.513 mPa·s
272.82 K, 79000 kPa | – | 1.66e-10 | –
272.84 K, 25700 kPa | – | 2.48e-10 | –
272.86 K, 100 kPa | – | 3.06e-10 | –
272.87 K, 100 kPa | – | 3.06e-10 | –
272.9 K, 200500 kPa | – | 7.6e-11 | –
272.91 K, 299000 kPa | – | 4.23e-11 | –
272.93 K, 249000 kPa | – | 5.7e-11 | –
272.99 K, 150000 kPa | – | 1.04e-10 | –
273.09 K, 98000 kPa | – | 1.46e-10 | –
273.15 K, 100 kPa | 1424.26 kg/m3 | – | 3.798 mPa·s [middle of 5 runs]
273.15 K, 10400 kPa | – | – | 4.226 mPa·s
273.15 K, 10500 kPa | – | – | 4.224 mPa·s
273.15 K, 25500 kPa | – | – | 4.909 mPa·s and 4.905 mPa·s
273.15 K, 50500 kPa | – | – | 6.179 mPa·s and 6.166 mPa·s
273.15 K, 75000 kPa | – | – | 7.57 mPa·s
273.15 K, 75500 kPa | – | – | 7.582 mPa·s
273.15 K, 99800 kPa | – | – | 9.373 mPa·s
273.15 K, 100300 kPa | – | – | 9.375 mPa·s
273.15 K, 125600 kPa | – | – | 11.37 mPa·s and 11.45 mPa·s
273.15 K, 125700 kPa | – | – | 11.39 mPa·s
273.15 K, 150300 kPa | – | – | 13.73 mPa·s
273.15 K, 150700 kPa | – | – | 13.79 mPa·s
273.15 K, 176200 kPa | – | – | 16.53 mPa·s
273.15 K, 176400 kPa | – | – | 16.61 mPa·s
273.15 K, 201100 kPa | – | – | 19.6 mPa·s and 19.51 mPa·s
273.15 K, 233500 kPa | – | – | 24.25 mPa·s
273.15 K, 233700 kPa | – | – | 24.29 mPa·s
273.25 K, 100 kPa | – | 3.07e-10 | –
273.25 K, 50000 kPa | – | 2.04e-10 | –
273.8 K, 100 kPa | – | 3.3e-10 | –
278.15 K, 100 kPa | 1416.08 kg/m3 | – | 3.311 mPa·s and 3.305 mPa·s
278.59 K, 100 kPa | – | 3.94e-10 | –
278.63 K, 100 kPa | – | 3.87e-10 | –
283.15 K, 100 kPa | 1407.84 kg/m3 and 1407.85 kg/m3 | – | 2.746 mPa·s and 2.749 mPa·s
288.15 K, 100 kPa | 1399.56 kg/m3 | – | 2.363 mPa·s and 2.368 mPa·s
288.53 K, 100 kPa | – | 5.41e-10 | –
288.56 K, 100 kPa | – | 5.3e-10 | –
293.15 K, 100 kPa | 1391.18 kg/m3 and 1391.19 kg/m3 | – | 2.077 mPa·s [middle of 4 runs]
298.15 K, 100 kPa | 1382.73 kg/m3 and 1382.71 kg/m3 | – | 1.781 mPa·s [middle of 7 runs]
298.15 K, 10200 kPa | – | – | 1.98 mPa·s and 1.981 mPa·s
298.15 K, 25400 kPa | – | – | 2.267 mPa·s and 2.264 mPa·s
298.15 K, 49900 kPa | – | – | 2.755 mPa·s
298.15 K, 50200 kPa | – | – | 2.773 mPa·s
298.15 K, 74900 kPa | – | – | 3.317 mPa·s
298.15 K, 75100 kPa | – | – | 3.314 mPa·s
298.15 K, 100400 kPa | – | – | 3.929 mPa·s
298.15 K, 100600 kPa | – | – | 3.938 mPa·s
298.15 K, 125200 kPa | – | – | 4.612 mPa·s
298.15 K, 125400 kPa | – | – | 4.61 mPa·s
298.15 K, 150100 kPa | – | – | 5.347 mPa·s
298.15 K, 175000 kPa | – | – | 6.198 mPa·s
298.15 K, 175200 kPa | – | – | 6.197 mPa·s
298.15 K, 197500 kPa | – | – | 6.965 mPa·s
298.15 K, 197800 kPa | – | – | 6.993 mPa·s
298.15 K, 200700 kPa | – | – | 7.21 mPa·s
298.15 K, 201700 kPa | – | – | 7.297 mPa·s
298.15 K, 224400 kPa | – | – | 8.254 mPa·s
298.15 K, 226100 kPa | – | – | 8.33 mPa·s
298.15 K, 256900 kPa | – | – | 9.931 mPa·s
298.15 K, 258400 kPa | – | – | 10.03 mPa·s
298.15 K, 276700 kPa | – | – | 10.98 mPa·s
298.15 K, 277800 kPa | – | – | 11.04 mPa·s
298.15 K, 300600 kPa | – | – | 12.3 mPa·s
298.15 K, 301600 kPa | – | – | 12.43 mPa·s
298.15 K, 325400 kPa | – | – | 13.99 mPa·s
298.15 K, 326500 kPa | – | – | 14.06 mPa·s
298.15 K, 348800 kPa | – | – | 15.77 mPa·s
298.15 K, 351100 kPa | – | – | 15.95 mPa·s
298.26 K, 100 kPa | – | 6.91e-10 | –
298.32 K, 100 kPa | – | 6.96e-10 | –
298.34 K, 100 kPa | – | 7.21e-10 | –
298.35 K, 100 kPa | – | 7.06e-10 | –
298.36 K, 100 kPa | – | 6.95e-10 | –
298.55 K, 100 kPa | – | 6.99e-10 | –
299.89 K, 25000 kPa | – | 6.08e-10 | –
299.91 K, 50000 kPa | – | 5.11e-10 | –
299.91 K, 72500 kPa | – | 4.38e-10 | –
299.92 K, 100 kPa | – | 7.35e-10 | –
299.92 K, 300000 kPa | – | 1.32e-10 | –
299.93 K, 98000 kPa | – | 3.77e-10 | –
299.93 K, 199000 kPa | – | 2.14e-10 | –
299.94 K, 149000 kPa | – | 2.87e-10 | –
299.94 K, 350000 kPa | – | 1.09e-10 | –
299.98 K, 250000 kPa | – | 1.72e-10 | –
300.4 K, 100 kPa | – | 7.52e-10 | –
303.15 K, 100 kPa | – | – | 1.574 mPa·s and 1.565 mPa·s

From the NIST ThermoML archive (doi:10.1021/acs.jced.7b01030)
